In US9169307B2 (The Trustees of the University of Pennsylvania, priority 2005, dated 2015):
Like-named read-outs stand apart in the source and are kept apart here. Each block holds one compound with its values, some of them ahead of it. Bridges are numbered along the chain shown (N, C = ends). [ ]: non-standard residue; d: D form. Trp(5-F) = N[C@@H](Cc1c[nH]c2ccc(F)cc12)C(=O)O; Trp(6-F) = N[C@@H](Cc1c[nH]c2cc(F)ccc12)C(=O)O

Columns and labels:
[1] = system: activation of the complement system by immunocomplexes (C3b/iC3b deposition); test: Complement inhibition assay (ELISA): inhibition of C3 fixation to ovalbumin-anti-ovalbumin complexes in normal human plasma; type: biochemical; conditions: for complement inhibitory activity (in words): at the concentrations tested; for amount of conjugate required to achieve the same inhibition as Ac-V4(1-methyl-W)/H9A: relative to Ac-V4(1-methyl-W)/H9A (SEQ ID NO:23); for Relative activity: Table 2, relative to the activity of compstatin (SEQ ID NO: 1); for Activity over compstatin: Table 1B, exemplary analogs described herein
Procedure: Complement activation inhibition was assessed by measuring the inhibition of C3 fixation to ovalbumin-anti-ovalbumin complexes in normal human plasma. Microtiter wells were coated with 50 μl of ovalbumin (10 mg/ml) for 2 hr at 25° C. (overnight at 4° C.). The wells were saturated with 200 μl of 10 mg/ml BSA for 1 hr at 25° C. and then a rabbit anti-ovalbumin antibody was added to form an immunocomplex by which complement can be activated. Thirty microliters of peptides at various concentrations were added directly to each well followed by 30 μl of a 1:80 dilution of human plasma. After 30 min incubation, bound C3b/iC3b was detected using a goat anti-human C3 HRP-conjugated antibody. Color was developed by adding ABTS peroxidase substrate and optical density measured at 405 nm.
The % inhibition was plotted against the peptide concentration, and the resulting data set was fit to the logistic dose-response function using Origin 7.0 software. […] IC50 values were obtained from the fitted parameters that achieved the lowest chi-square value.

[2] = molecular target: C3 (Homo sapiens, UniProt P01024); test: Isothermal titration calorimetry of the interaction of C3 with compstatin analogs; type: binding
C3, sequence (P01024 23-1663): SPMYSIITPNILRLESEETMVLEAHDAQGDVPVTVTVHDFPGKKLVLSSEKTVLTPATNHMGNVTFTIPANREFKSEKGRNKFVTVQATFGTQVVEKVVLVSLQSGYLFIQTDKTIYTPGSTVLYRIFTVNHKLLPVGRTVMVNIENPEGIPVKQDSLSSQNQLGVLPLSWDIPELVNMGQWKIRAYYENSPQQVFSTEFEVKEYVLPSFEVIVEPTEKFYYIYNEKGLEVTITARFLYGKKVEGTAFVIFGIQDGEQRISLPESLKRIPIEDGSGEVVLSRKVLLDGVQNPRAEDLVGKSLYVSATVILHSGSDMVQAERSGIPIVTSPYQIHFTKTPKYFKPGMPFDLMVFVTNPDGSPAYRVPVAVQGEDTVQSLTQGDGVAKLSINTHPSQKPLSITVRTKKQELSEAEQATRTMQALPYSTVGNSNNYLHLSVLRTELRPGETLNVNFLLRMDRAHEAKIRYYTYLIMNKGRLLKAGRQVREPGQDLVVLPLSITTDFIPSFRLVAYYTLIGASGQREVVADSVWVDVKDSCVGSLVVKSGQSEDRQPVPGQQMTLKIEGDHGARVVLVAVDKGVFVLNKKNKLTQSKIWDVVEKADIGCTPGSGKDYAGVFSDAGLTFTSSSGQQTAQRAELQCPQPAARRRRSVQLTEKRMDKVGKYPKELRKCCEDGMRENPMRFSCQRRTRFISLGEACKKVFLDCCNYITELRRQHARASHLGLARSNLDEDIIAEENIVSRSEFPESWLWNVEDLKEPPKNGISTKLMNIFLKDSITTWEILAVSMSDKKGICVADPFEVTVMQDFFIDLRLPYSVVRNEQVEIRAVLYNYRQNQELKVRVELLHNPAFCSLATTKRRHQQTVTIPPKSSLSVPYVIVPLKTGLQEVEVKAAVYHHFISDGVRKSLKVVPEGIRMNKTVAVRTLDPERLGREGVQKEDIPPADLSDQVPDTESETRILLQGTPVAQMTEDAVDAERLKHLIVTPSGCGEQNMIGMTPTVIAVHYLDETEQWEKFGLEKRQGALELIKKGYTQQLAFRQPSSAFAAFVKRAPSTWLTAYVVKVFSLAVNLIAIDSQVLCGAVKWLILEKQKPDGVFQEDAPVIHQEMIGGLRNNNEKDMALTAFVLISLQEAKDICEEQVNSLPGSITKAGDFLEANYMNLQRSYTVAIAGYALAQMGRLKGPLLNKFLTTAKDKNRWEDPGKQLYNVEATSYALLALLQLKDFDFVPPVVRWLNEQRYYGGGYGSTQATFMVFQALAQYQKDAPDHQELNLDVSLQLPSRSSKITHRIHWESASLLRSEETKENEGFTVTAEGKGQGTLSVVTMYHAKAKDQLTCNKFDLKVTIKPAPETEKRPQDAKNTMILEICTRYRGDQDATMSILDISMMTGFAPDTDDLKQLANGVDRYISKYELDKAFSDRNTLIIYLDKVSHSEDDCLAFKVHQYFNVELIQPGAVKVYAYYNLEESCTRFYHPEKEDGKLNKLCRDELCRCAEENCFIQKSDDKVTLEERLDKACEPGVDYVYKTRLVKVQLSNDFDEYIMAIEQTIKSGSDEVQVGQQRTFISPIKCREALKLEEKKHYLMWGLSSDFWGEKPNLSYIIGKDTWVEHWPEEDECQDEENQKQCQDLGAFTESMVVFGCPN
Procedure: Isothermal titration calorimetry experiments were performed using the Microcal VP-ITC calorimeter (Microcal Inc, Northampton, Mass.). Protein concentrations of 3.5-5 μM and peptide concentrations of 80-200 μM were used for these experiments. All titrations were performed in PBS (10 mM phosphate buffer with 150 mM NaCl, pH 7.4). In each experiment, the target protein, C3, was loaded into the cell, and peptide was loaded into the syringe. All experiments were performed at 25° C. and for each experiment, 2-μl peptide injections were made into the cell containing the protein. In each experiment, the raw isotherms were corrected for the heats of dilution by subtracting the isotherms representing peptide injections into the buffer. The resulting isotherms were fit to various models within the Origin 7.0 software, and the model that achieved the lowest chi square value was deemed to be appropriate for the respective dataset. Binding affinity and entropy values were plotted against log P values.

[3] = system: activation of the complement system by immunocomplexes (C3b/iC3b deposition); conditions: cited from earlier work; for Activity over compstatin: Table 1A, previously described analogs (WO2004/026328)
[4] = system: alternative pathway-mediated erythrocyte lysis; conditions: cited from earlier work
[5] = relative to Ac-V4W/H9A (SEQ ID NO:5)

ΔG ([2]; Table 6, ITC, 25° C.): -9.5 kcal/mol | −TΔS ([2]; Table 6, ITC, 25° C.): 4.8 kcal/mol | ΔΔG ([2]; Table 6, relative to Wild-type): -0.1 kcal/mol | ΔΔH ([2]; Table 6, relative to Wild-type): 3.87 kcal/mol | −TΔΔS ([2]; Table 6, relative to Wild-type): -3.99 kcal/mol
Compound: CC[C@H](C)[C@H](NC(C)=O)C(=O)N[C@H]1CSSC[C@@H](C(=O)N[C@H](C(N)=O)[C@@H](C)O)NC(=O)[C@H](CCCNC(=N)N)NC(=O)[C@H](Cc2c[nH]cn2)NC(=O)[C@H](C)NC(=O)CNC(=O)[C@H](Cc2c[nH]c3ccccc23)NC(=O)[C@H](CC(=O)O)NC(=O)[C@H](CCC(N)=O)NC(=O)[C@H](Cc2ccc3ccccc3c2)NC(=O)[C@H](C(C)C)NC1=O [Ac-V4(2-Nal)/H9A]
IC50 ([1]; Table 5): 545 nM | Activity over compstatin [3]: 99 × more

Compound: CC[C@H](C)[C@H](N)C(=O)N[C@H]1CSSC[C@@H](C(=O)N[C@H](C(N)=O)[C@@H](C)O)NC(=O)[C@H](CCCN=C(N)N)NC(=O)[C@H](Cc2cnc[nH]2)NC(=O)[C@H](Cc2cnc[nH]2)NC(=O)CNC(=O)[C@H](Cc2c[nH]c3ccccc23)NC(=O)[C@H](CC(=O)O)NC(=O)[C@H](CCC(N)=O)NC(=O)[C@H](C(C)C)NC(=O)[C@H](C(C)C)NC1=O [Compstatin]
IC50 [4]: 12000 nM

Compound: Ac-ICV(1-Nal)QDWGAHRCT-COOH [Ac V4(1-Nal)/H9A −OH]
Activity over compstatin [3]: 30 × more

Compound: Ac-ICV(1MeW)QDWGAHRCTRLIEDICLPRWGCLWEDD-NH2 [Albumin-binding peptide-compstatin]
complement inhibitory activity (in words) [1]: active in inhibiting complement activation | amount of conjugate required to achieve the same inhibition as Ac-V4(1-methyl-W)/H9A [1]: seven-fold more conjugate was required

Compound: Ac-ICV(2-Igl)QDWGAHRCT-CONH2 [Ac-V4Igl/H9A]
Activity over compstatin [3]: 39 × more

Compound: Ac-ICV(2-Igl)QDWGAHRCT-COOH [Ac-V4Igl/H9A −OH]
Activity over compstatin [3]: 37 × more

Compound: Ac-ICV(2-Nal)QDWGAHRCT-COOH [Ac V4(2-Nal)/H9A −OH]
Activity over compstatin [3]: 39 × more

Compound: Ac-ICV(Bpa)QDWGAHRCT-COOH [Ac-V4(Bpa)/H9A −OH]
Activity over compstatin [3]: 49 × more | fold greater activity than compstatin ([3]; analogs disclosed in WO2004/026328): 49 fold

Compound: Ac-ICVDhtQDWGAHRCT-COOH [Ac-V4Dht/H9A −OH]
Activity over compstatin [3]: 5 × more

Compound: Ac-ICVVQDWGHHRCT-CONH2 [Ac-compstatin]
Activity over compstatin [3]: 3 × more

Compound: Ac-ICVYQDWGAHRCT-CONH2 (Ac-ICVYQDWGAHRCT-NH2; disulfide 2-12 (inferred)) [Ac-V4Y/H9A]
Activity over compstatin [3]: 19 × more

Compound: Ac-V4(1-methyl-W)/H9A-K-PEG 5000: Ac-V4(1-methyl-W)/H9A with C-terminal lysine whose side chain is linked to PEG 5000 (ICVWQDWGAHRCTK; N-acetyl; 1-methyl-Trp at 4; C-terminal Lys-PEG5000)
complement inhibitory activity (in words) [1]: active in inhibiting complement activation | amount of conjugate required to achieve the same inhibition as Ac-V4(1-methyl-W)/H9A [1]: seven-fold more conjugate was required

Compound: GICVWQDWGAHRCTN [G(−1)/V4(5-OH-W)/W7(5-OH-W)/H9A/N14]
IC50 ([1]; Table 2, expressed peptides): 33000 nM | Relative activity [1]: 1.6 | fold loss in activity / times less active compared to Ac-V4W/H9A [1, 5]: 27.5 fold

Compound: GICVWQDWGAHRCTN [G(−1)/V4W/H9A/N14, bacterially expressed compstatin analog]
Activity over compstatin [1]: 45 × more | IC50 ([1]; Table 2, expressed peptides): 1200 nM | Relative activity [1]: 45

Compound: H-GICV(5f-l-W)QD(5f-l-W)GAHRCTN-COOH (H-GICV[Trp(5-F)]QD[Trp(5-F)]GAHRCTN-OH; disulfide 3-13 (inferred)) [G(−1)/V4(5fW)/W7(5fW)/H9A/N14, bacterially expressed compstatin analog]
Activity over compstatin [1]: 112 × more | IC50 ([1]; Table 2, expressed peptides): 480 nM | Relative activity [1]: 112 | fold higher activity than Ac-V4W/H9A [1, 5]: 2.5 fold

Compound: H-GICV(6f-l-W)QD(6f-l-W)GAHRCTN-COOH (H-GICV[Trp(6-F)]QD[Trp(6-F)]GAHRCTN-OH; disulfide 3-13 (inferred)) [G(−1)/V4(6fW)/W7(6fW)/H9A/N14, bacterially expressed compstatin analog]
Activity over compstatin [1]: 126 × more | IC50 ([1]; Table 2, expressed peptides): 430 nM | Relative activity [1]: 126 | fold higher activity than Ac-V4W/H9A [1, 5]: 2.8 fold
